Experimental data: PubChem BioAssay AID1963846 (Molecular Pharmacology Branch, DTP, NCI, 2024)

System: 454973-116-R2-J3-PDC complex spheroid viability
Experiment: Anticancer human tumor 454973-116-R2-J3-PDC patient-derived pancreatic carcinoma cell line growth inhibition [POLQ]
Conditions: for IC50: curve of first compound; for viability, T/C: stronger effect = lower value
Protocol: Multicellular complex tumor spheroid response to Polymerase (POL) inhibitors (novobiocin, ART-558, RP6685) in combination with a variety of drugs and investigational agents in selected tumor cell lines
The POL inhibitors (novobiocin, ART-558, and RP6685) were evaluated both individually and in combination with standard of care and investigational anticancer small molecules within a complex spheroid model of solid tumors. . Complex spheroids include a stromal component modeled by human endothelial cells (HUVEC) and fibroblasts modeled by human mesenchymal stem cells (MSCs). The concentration ranges selected for each drug and investigational agent were based upon clinically achievable concentrations if the clinical Cmax of the agent was known.
Compounds. The drugs and investigational agents: novobiocin (NSC847541), ART-558 (NSC835418), RP-6685 (NSC848927), peposertib (NSC802822), ceralasertib (NSC780249), elimusertib (NSC800525), camonsertib (NSC841442), AZD-1390 (NSC803789), olaparib (NSC753686), talazoparib (NSC767125), rucaparib (NSC756644), sotorasib (NSC818433), MRTX-1133 (NSC836407), SN-38 (NSC673596), topotecan (NSC609699), epotoside (NSC141540), doxorubicin (NSC123127), gemcitabine (NSC613327), 5-fluorouracil (NSC19893), paclitaxel (NSC125973), vemurafenib (NSC761431), MSA-2 (NSC828583), SN-011 (NSC837082), adavosertib (NSC754352), prexasertib (NSC758257), carboplatin (NSC241240) and oxaliplatin (NSC266046), were obtained from the National Cancer Institute (NCI) Developmental Therapeutics Program Chemical Repository (21). The FDA-approved anticancer drug set is available from the Developmental Therapeutics Program at https://dtp.cancer.gov/organization/dscb/obtaining/. […] The stock solutions were prepared in dimethyl sulfoxide (DMSO, Sigma-Aldrich, St. Louis, MO, cat. D2650), except for the platinum compounds which were prepared in saline (Quality Biological, Gaithersburg, MD, cat. 114-055-101), at 800-fold the tested concentration and stored at -70 degrees C prior to their use. All drugs and investigational agents were tested over a range starting from a high concentration at or near the clinical Cmax and decreasing in half-log increments. If the clinical Cmax for an agent had not been determined, the highest concentration tested was 10 microM, except for SN-38, which was tested at a high concentration of 1 microM.
Cell Culture. All cells were maintained in an incubator at 37 degrees C and 5% CO2 with 95% humidity. The PDC lines were cultured according to standard operating procedures established by the NCI PDMR (https://pdmr.cancer.gov). Table 3 of the manuscript, lists the cell lines along with the number of the three cell types plated to form the mct-spheroids and media for tumor cell growth. After thawing, all PDC lines, except 997537-175-T-J1-PDC and 415267-285-R-J2-PDC, were cultured in Matrigel-coated flasks prepared with a working solution of 1X Ham's F-12 nutrient mix, without supplementation (Thermo Fisher Scientific, cat. 11765054), 100 U/mL penicillin-streptomycin (Thermo Fisher Scientific, cat. 15140122), and 2.5% Matrigel (Corning Inc., Corning, NY, cat. 354248) for the first three passages. The two PDC lines 997537-175-T-J1-PDC and 415267-285-R-J2-PDC were cultured on uncoated flasks. The 857933-349-R-J2-PDC line was cultured in 6C/Colon 1B media containing advanced DMEM/F-12 (Thermo Fisher Scientific, cat. 12634028), 10 mM HEPES (Thermo Fisher Scientific, cat. 15630080), 1X GlutaMAX supplement (Thermo Fisher Scientific, cat. 35050061), 0.1 mg/mL primocin (InvivoGen, San Diego, CA, cat. ant-pm-2), 10% defined fetal bovine serum, heat inactivated (HyClone Laboratories Inc., Logan, UT, cat. SH30070.03HI), 50% L-WRN conditioned media (ATCC, cat. CRL-3276), 1.25 mM N-Acetyl-L-cysteine (Sigma-Aldrich, cat. A9165), 10 mM nicotinamide (Sigma-Aldrich, cat. N0636), 1X B-27 supplement (Thermo Fisher Scientific, cat. 17504044), 1X N-2 supplement (Thermo Fisher Scientific, cat. […]

[1] = second compound 0.0316 µM, first compound 0.0316 µM
[2] = second compound 0.0316 µM, first compound 0.1 µM
[3] = second compound 0.0316 µM, first compound 0.316 µM
[4] = second compound 0.0316 µM, first compound 1 µM
[5] = second compound 0.1 µM, first compound 0.0316 µM
[6] = second compound 0.1 µM, first compound 0.1 µM
[7] = second compound 0.1 µM, first compound 0.316 µM
[8] = second compound 0.1 µM, first compound 1 µM
[9] = second compound 0.316 µM, first compound 0.0316 µM
[10] = second compound 0.316 µM, first compound 0.1 µM
[11] = second compound 0.316 µM, first compound 0.316 µM
[12] = second compound 0.316 µM, first compound 1 µM
[13] = second compound 1 µM, first compound 0.0316 µM
[14] = second compound 1 µM, first compound 0.1 µM
[15] = second compound 1 µM, first compound 0.316 µM
[16] = second compound 1 µM, first compound 1 µM
[17] = second compound 3.16 µM, first compound 0.0316 µM
[18] = second compound 3.16 µM, first compound 0.1 µM
[19] = second compound 3.16 µM, first compound 0.316 µM
[20] = second compound 3.16 µM, first compound 1 µM
[21] = second compound 10 µM, first compound 0.0316 µM
[22] = second compound 10 µM, first compound 0.1 µM
[23] = second compound 10 µM, first compound 0.316 µM
[24] = second compound 10 µM, first compound 1 µM
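Further: spheroids exposed to drugs for seven days before measurement.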
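Wherever viability, T/C is given: percent viability relative to DMSO vehicle control wells taken as 100%.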

SMILES: COc1cccc(OCCCN)c1-c1cc(Nc2cnc(C#N)cn2)n[nH]1 + Nc1ccc(C#CCN(C(=O)Cc2ncc(C(F)(F)F)cc2C(F)(F)F)c2ccc(F)cc2)nn1
- IC50 (second compound 0.0316 µM): 15.6 nM
- IC50 (second compound 0.1 µM): 13.6 nM
- IC50 (second compound 0.316 µM): 14.3 nM
- IC50 (second compound 1 µM): 13.9 nM
- IC50 (second compound 3.16 µM): 13.7 nM
- IC50 (second compound 10 µM): 11.6 nM
- viability, T/C (second compound 0.0316 µM, first compound 0.00316 µM): 100%
- viability, T/C (second compound 0.0316 µM, first compound 0.01 µM): 76.6%
- viability, T/C [1]: 7.44%
- viability, T/C [2]: 5.67%
- viability, T/C [3]: 5.56%
- viability, T/C [4]: 4.28%
- viability, T/C (second compound 0.1 µM, first compound 0.00316 µM): 101%
- viability, T/C (second compound 0.1 µM, first compound 0.01 µM): 63.5%
- viability, T/C [5]: 12.7%
- viability, T/C [6]: 6.65%
- viability, T/C [7]: 5.32%
- viability, T/C [8]: 4.22%
- viability, T/C (second compound 0.316 µM, first compound 0.00316 µM): 110%
- viability, T/C (second compound 0.316 µM, first compound 0.01 µM): 67.2%
- viability, T/C [9]: 11.2%
- viability, T/C [10]: 7.21%
- viability, T/C [11]: 5.08%
- viability, T/C [12]: 4.5%
- viability, T/C (second compound 1 µM, first compound 0.00316 µM): 99.7%
- viability, T/C (second compound 1 µM, first compound 0.01 µM): 67.3%
- viability, T/C [13]: 6.4%
- viability, T/C [14]: 5.68%
- viability, T/C [15]: 5.11%
- viability, T/C [16]: 3.75%
- viability, T/C (second compound 3.16 µM, first compound 0.00316 µM): 101%
- viability, T/C (second compound 3.16 µM, first compound 0.01 µM): 66.7%
- viability, T/C [17]: 5.97%
- viability, T/C [18]: 5.07%
- viability, T/C [19]: 5.91%
- viability, T/C [20]: 4.97%
- viability, T/C (second compound 10 µM, first compound 0.00316 µM): 113%
- viability, T/C (second compound 10 µM, first compound 0.01 µM): 56.4%
- viability, T/C [21]: 5.54%
- viability, T/C [22]: 5.59%
- viability, T/C [23]: 5.26%
- viability, T/C [24]: 4.7%

SMILES: Nc1ccn(C2OC(CO)C(O)C2(F)F)c(=O)n1 (centres undefined) + Nc1ccc(C#CCN(C(=O)Cc2ncc(C(F)(F)F)cc2C(F)(F)F)c2ccc(F)cc2)nn1
- IC50 (second compound 0.0316 µM): < 31.6 nM
- IC50 (second compound 0.1 µM): < 31.6 nM
- IC50 (second compound 0.316 µM): < 31.6 nM
- IC50 (second compound 1 µM): < 31.6 nM
- IC50 (second compound 3.16 µM): < 31.6 nM
- IC50 (second compound 10 µM): < 31.6 nM
- viability, T/C [1]: 6.99%
- viability, T/C [2]: 8.25%
- viability, T/C [3]: 7.01%
- viability, T/C [4]: 6.38%
- viability, T/C (second compound 0.0316 µM, first compound 3.16 µM): 8.02%
- viability, T/C (second compound 0.0316 µM, first compound 10 µM): 5.63%
- viability, T/C [5]: 8.85%
- viability, T/C [6]: 7.54%
- viability, T/C [7]: 7.93%
- viability, T/C [8]: 6.21%
- viability, T/C (second compound 0.1 µM, first compound 3.16 µM): 7.06%
- viability, T/C (second compound 0.1 µM, first compound 10 µM): 5.26%
- viability, T/C [9]: 7.49%
- viability, T/C [10]: 6.66%
- viability, T/C [11]: 6.67%
- viability, T/C [12]: 7.27%
- viability, T/C (second compound 0.316 µM, first compound 3.16 µM): 6.52%
- viability, T/C (second compound 0.316 µM, first compound 10 µM): 5.87%
- viability, T/C [13]: 9.44%
- viability, T/C [14]: 6.21%
- viability, T/C [15]: 6.52%
- viability, T/C [16]: 6.07%
- viability, T/C (second compound 1 µM, first compound 3.16 µM): 6.68%
- viability, T/C (second compound 1 µM, first compound 10 µM): 5.65%
- viability, T/C [17]: 9.42%
- viability, T/C [18]: 6.2%
- viability, T/C [19]: 6.31%
- viability, T/C [20]: 6.8%
- viability, T/C (second compound 3.16 µM, first compound 3.16 µM): 7.81%
- viability, T/C (second compound 3.16 µM, first compound 10 µM): 5.38%
- viability, T/C [21]: 7.43%
- viability, T/C [22]: 5.82%
- viability, T/C [23]: 5.66%
- viability, T/C [24]: 6.28%
- viability, T/C (second compound 10 µM, first compound 3.16 µM): 7.1%
- viability, T/C (second compound 10 µM, first compound 10 µM): 4.05%
